Reference: publication PMC7617459, “Comparative Evaluation and Profiling of Chemical Tools for the Nuclear Hormone Receptor Family 2” (ACS pharmacology & translational science, 2025)

Experiments:
COS-7 cells = assay: Multiplex toxicity assay; assay type: cell-based; conditions: 24 h, at active concentration
Protocol: COS-7 cells (DSMZ #ACC 60) were cultured at 37°C and 5% CO2 in DMEM high glucose medium supplemented with sodium pyruvate (1 mM), penicillin (100 U/mL), streptomycin (100 µg/mL), and 10% fetal calf serum (FCS). After aspirating the wells, the cells were seeded at 1x10^5 cells per well in complete culture medium. […] Each sample was prepared in at least 4 biologically independent replicates. After incubation for 24 h, the wells were aspirated and incubated for 30 min with stimulation medium containing 1 µM NucView® 405 fluorogenic caspase-3 substrate (#10405, Biotium, Fremont, USA) and Live-or-Dye Nuc-Fix Red (0.05x, Biotium, Inc., Fremont, CA, 1691 USA) to detect apoptosis and necrosis, respectively. After incubation, a total of 6 fluorescence images per well at 10x magnification were taken to detect NucView®-positive (Ex: 381–400 nm, Em: 414–450 nm) and Live-or-Dye-positive cells (Ex: 543−566 nm, Em: 580−611 nm) using on a Tecan Spark Cyto (Tecan Group AG). Reference readings for background correction and detection of auto-fluorescence were taken at 414–450 nm prior to staining. Thereafter, wells were aspirated, the cells were incubated for 3 h with 90 µL culture medium (0.2% FCS) and 10 µL Cell Counting Kit-8 solution (CCK-8, MedChem Express #HY-K0301), and absorbance was measured at 1, 2, and 3h of incubation at 450 nm on a Tecan Spark Cyto to assess metabolic activity of the cells. Before drug administration, after the first medium exchange, 24 h after drug administration, and after fluorescence imaging cell confluence was assessed using the Tecan Spark Cyto, to account for changes in cell confluence due to drug administration and cell handling. The number of apoptotic cells, metabolic activity, and changes in cell confluence in response to drug treatment were all normalized to the vehicle control of each biological replicate individually.

MBP-PNR-LBD = target: MBP-PNR-LBD; design: method as in PMID 35508617; conditions: determined by UV absorption; cited from earlier work
[1] = target: PNR mutations associated with Enhanced S-Cone Syndrome (ESCS); design: method as in PMID 35508617; conditions: cited from earlier work
nuclear receptors = assay: Selectivity profiling in Gal4-hybrid reporter gene assay panel; assay type: cell-based, human; conditions: at active concentration
Protocol: Compounds were tested at concentrations around EC90 according to the literature or at the highest nontoxic concentration (from the multiplex toxicity assay). […] (b) Selectivity profiling of NR2 modulators in a representative panel of nuclear receptors outside the NR2 family. […] Effects <5% of the respective reference ligands were considered as not relevant and omitted. Only effects are shown that are statistically significant against VP16 ctrl (Figure S3); n = 3.

PNR = tested on: PNR; design: method as in PMID 35508617; conditions: cited from earlier work
ATF6 = ATF6 activity assay; assay type: cell-based; conditions: tunicamycin treated Hela ATF6 reporter cells
Text: Next, we evaluated the potential impact of the NR2 modulator set on endoplasmic reticulum (ER) stress in an ATF6 activity assay (Fig. 4b). The activating transcription factor 6 (ATF6) participates in the unfolded protein response and is activated under ER stress.[164] Tunicamycin-induced ATF6 activity was not affected by RXR and TLX modulators but was reduced by the inverse PNR agonists 22 and 23.
Hela cells containing a Renilla luciferase reporter gene for ATF6 activity (ATF6 Leeporter™ Luciferase Reporter-HeLa Cell Line, Abeomics Inc.; #14-138ACL) were cultured in DMEM supplemented with 10% heat-inactivated FCS, penicillin (100 U/mL), streptomycin (100 μg/mL) and puromycin (3 µg/mL) at 37°C and 5% (v/v) CO2 and seeded in 96-well plates (1 × 10^5 per well). After 24 h, the cells were incubated with the test compounds solubilized with 0.1% DMSO in the same medium without puromycin. After 4 h of incubation, tunicamycin (100 ng/mL) was added. After another 18 h of incubation, cells were assayed for renilla luminescence using DualGlo reagent (Promega) on a Tecan SPARK Cyto (Tecan). Test samples were normalized to the 0.1% DMSO control.

MBP-NR2E1-LBD = tested on: MBP-NR2E1-LBD; design: method as in PMID 35508617; conditions: MS-based binding experiment; cited from earlier work
PNR protein levels = tested on: PNR protein levels; design: method as in PMID 35508617, PMID 19379737; conditions: retinoblastoma cells, 1 µM, Western blot; cited from earlier work
NR2F1 [2] = tested on: NR2F1; design: method as in PMID 34812843; conditions: cited from earlier work
[3] = tested on: NR2F1-regulated genes SOX9, RARβ, and p27; design: method as in PMID 34812843; conditions: chicken embryo chorioallantoic membrane tumors; cited from earlier work
NR2F1 [4] = tested on: NR2F1; design: method as in PMID 34812843; conditions: T-Hep3 cells on chicken embryo chorioallantoic membrane; cited from earlier work
PNR (NR2E3) = target: T1, PNR (NR2E3) (Homo sapiens, UniProt Q9Y5X4); assay: Gal4-hybrid reporter gene assay PNR; assay type: cell-based; conditions: selected test concentration (Figure 3)
T1 construct: encoding the hinge region and the LBD of the canonical isoform of the respective human nuclear receptors; expressed in transfected cells; host or cells: HEK293T
T1 sequence (Q9Y5X4 169-410 limits assumed): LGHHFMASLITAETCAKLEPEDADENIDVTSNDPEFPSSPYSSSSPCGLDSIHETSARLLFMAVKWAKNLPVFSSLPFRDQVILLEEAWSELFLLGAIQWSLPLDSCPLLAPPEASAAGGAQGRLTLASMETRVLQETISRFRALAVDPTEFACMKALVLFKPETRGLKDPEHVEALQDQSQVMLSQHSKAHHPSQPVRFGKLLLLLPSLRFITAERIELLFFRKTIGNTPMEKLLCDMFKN
Protocol: Gal4-hybrid reporter gene assays were performed as described previously using the plasmids pFA-CMV-hTHRα-LBD,[170] pFA-CMV-hRARα-LBD,[171] pFA-CMV-hPPARα-LBD,[172] pFA-CMV-hPPARγ-LBD,[172] pFA-CMV-hPPARδ-LBD,[172] pFA-CMV-revERBα-LBD,[158] pFA-CMV-hRORα-LBD,[173] pFA-CMV-hLXRα-LBD,[118] pFA-CMV-hFXR-LBD,[174] pFA-CMV-hVDR-LBD,[171] pFA-CMV-hCAR-LBD,[171] pFA-CMV-hHNF4α-LBD,[110] pFA-CMV-hRXRα-LBD,[175] pFA-CMV-hTR2-LBD,[102] pFA-CMV-hTR4-LBD,[102] pFA-CMV-hTLX-LBD,[102] pFA-CMV-hNR2E3-LBD,[102] pFA-CMV-hNur77-LBD,[176] pFA-CMV-hSF1-LBD[158] encoding the hinge region and the LBD of the canonical isoform of the respective human nuclear receptors. pFR-Luc (Stratagene, La Jolla, CA, USA) was used as a reporter plasmid, and pRL-SV40 (Promega, Madison, WI, USA) was used for normalization of transfection efficiency and cell growth. HEK293T cells (German Collection of Microorganisms and Cell Culture GmbH, DSMZ) were cultured in Dulbecco’s modified Eagle’s medium (DMEM), high glucose supplemented with 10% fetal calf serum (FCS), sodium pyruvate (1 mM), penicillin (100 U/mL), and streptomycin (100 μg/mL) at 37 °C and 5% CO2 and seeded in 96-well plates (3 × 10^4 cells/well). The medium was changed to Opti-MEM without supplements, and the cells were transiently transfected with one pFA-CMV-hNR-LBD clone, pFR-Luc, and pRL-SV40 using Lipofectamine LTX reagent (Invitrogen, Thermo Fisher Scientific) according to the manufacturer’s instructions. Five hours after transfection, cells were incubated with the test compounds in Opti-MEM supplemented with penicillin (100 U/mL), streptomycin (100 μg/mL), and 0.1% DMSO. Each sample was set up in duplicates and tested in at least three independent experiments. After 16 h incubation, luciferase activity was measured using the Dual-Glo Luciferase Assay System (Promega) according to the manufacturer’s protocol on a Tecan Spark luminometer (Tecan Deutschland GmbH, Crailsheim, Germany). Firefly luminescence was divided by Renilla luminescence and multiplied by 1000 resulting in relative light units (RLUs) to normalize for transfection efficiency and cell growth. Fold activation was obtained by dividing the mean RLU of the test compound by the mean^a RLU of the untreated control, and relative activation was calculated by dividing the fold activation of a test sample by the fold activation of the respective reference agonist. Antagonistic effects were evaluated by coincubation of the test compound with the respective reference ligand.

[5] = tested on: head and neck squamous-cell carcinoma (HNSCC); design: method as in PMID 34812843; conditions: mice; cited from earlier work
[6] = tested on: HNF4α, RXRα, PPARα, LXRα, GR, PR, ER, RAR, RORγ, AR, and COUP-TF1; design: method as in PMID 32494682; conditions: cited from earlier work
prostate cancer tumor = tested on: prostate cancer tumor; design: method as in PMID 32494682; conditions: xenograft mouse model, 2.6 mg/kg; cited from earlier work
[7] = tested on: COUP-TF2 target genes FOXM1 and CDK1; design: method as in PMID 32494682; conditions: prostate cancer cells; cited from earlier work
COUP-TF2 = tested on: COUP-TF2; design: method as in PMID 32494682; conditions: reporter gene assay; cited from earlier work

For `C=CC1=C(C)/C(=C/C2=NC(=C\c3[nH]c(/C=C4\NC(=O)C(C)=C4C=C)c(C)c3CCC(=O)O)/C(CCC(=O)O)=C2C)NC1=O` [compound 25, biliverdin], the cytotoxicity (COS-7 cells) is given as “lack of cytotoxicity”, the Kd (MBP-PNR-LBD) is given as 0.2 µM and the Kd [1] is given as 9 µM. The “selectivity over other nuclear receptors” value (nuclear receptors) was “Favorable selectivity profiles”, the PNR activation (PNR; reporter gene assay in 293F cells) was “approximately 3 fold” and the EC50 (PNR; reporter gene assay) was 0.005 µM. The “tunicamycin-induced ATF6 activity” value (ATF6) was “slightly diminished”, the “interaction with MBP-NR2E1-LBD (TLX)” value (MBP-NR2E1-LBD) was “no interaction” and the PNR protein levels (PNR protein levels) was “two-fold increase”.

In the case of `CCSc1nnc2n(CCc3ccccc3)c(=O)c3c(n12)-c1ccccc1CC31CCCCC1` [compound 26], the “fold activation @ 0.1 μM” value (NR2F1 [2]; reporter gene assay, 0.1 μM) is listed as 2.4 f.A, the “fold activation @ 1 μM” value (NR2F1 [2]; reporter gene assay, 1 μM) is listed as 1.9 f.A and the EC50 (NR2F1 [2]; reporter gene assay, two cell lines) is listed as 0.5 to 1 µM. The “enhancement of reporter activity” value (NR2F1 [2]; two cell lines) was “approximately two-fold”, the “expression of NR2F1-regulated genes SOX9, RARβ, and p27” value [3] was “induced expression” and the “increase in NR2F1 mRNA” value (NR2F1 [4]) was 2.3 fold. The “increase in NR2F1 protein levels” value (NR2F1 [4]) was 10 fold, the PNR modulation (PNR (NR2E3)) was “confirmed albeit with rather low efficacy” and the “tumor growth and metastasis of HNSCC” value [5] was “inhibited tumor growth and metastasis”.

In the case of `COc1ccc(CCNc2ncnc3sc(C)cc23)cc1OC` [compound 27], the “interaction with related NRs in pulldown assay” value [6] is given as “no relevant interaction”, the “prostate cancer tumor growth and angiogenesis” value (prostate cancer tumor) is given as “inhibited prostate cancer tumor growth and angiogenesis” and the “expression of COUP-TF2 target genes FOXM1 and CDK1” value [7] is given as “altered expression”. For the same molecule, the IC50 (COUP-TF2) was 3.2 µM.
